{
  "source": "patent US12691112B2",
  "about": "“FGFR tyrosine kinase inhibitors for the treatment of urothelial carcinoma” (Janssen Pharmaceutica NV, priority 2019, dated 2026)",
  "tested_on": "subjects with metastatic or surgically unresectable urothelial cancer",
  "key": {"[1]": {"conditions": "all-causality, 10 mg intermittent, n = 33"}, "[2]": {"conditions": "treatment-emergent, all-causality, 8 mg Continuous, Regimen 3 (n = 99)"}, "[3]": {"conditions": "treatment-related, 6 mg Continuous, Regimen 2 (n = 78)"}, "[4]": {"conditions": "treatment-related, 8 mg Continuous Erdafitinib, Regimen 3 (n = 99)"}, "[5]": {"conditions": "treatment-related, 10 mg Intermittent, Regimen 1 (n = 33)"}},
  "note": "Like-named read-outs stand apart in the source and are kept apart here.",
  "data": [
    {"smiles": "COc1cc(OC)cc(N(CCNC(C)C)c2ccc3ncc(-c4cnn(C)c4)nc3c2)c1", "note": "[erdafitinib, N-(3,5-dimethoxy-phenyl)-N′-(1-methylethyl)-N-[3-(1-methyl-1H-pyrazol-4-yl)quinoxalin-6-yl]ethane-1,2-diamine]", "values": [
      {"measurement": "Paronychia, grade 1", "setting": "[1]", "result": 0, "unit": "no."},
      {"measurement": "Paronychia, grade 2", "setting": "[1]", "result": 2, "unit": "no."},
      {"measurement": "Paronychia, grade ≥ 3", "setting": "[1]", "result": 0, "unit": "no."},
      {"measurement": "Peripheral edema, any grade", "setting": "[1]", "result": 5, "unit": "no."},
      {"measurement": "Peripheral edema, grade 1", "setting": "[1]", "result": 1, "unit": "no."},
      {"measurement": "Peripheral edema, grade 2", "setting": "[1]", "result": 4, "unit": "no."},
      {"measurement": "Peripheral edema, grade ≥ 3", "setting": "[1]", "result": 0, "unit": "no."},
      {"measurement": "Pyrexia, any grade", "setting": "[1]", "result": 5, "unit": "no."},
      {"measurement": "Pyrexia, grade 1", "setting": "[1]", "result": 5, "unit": "no."},
      {"measurement": "Pyrexia, grade 2", "setting": "[1]", "result": 0, "unit": "no."},
      {"measurement": "Pyrexia, grade ≥ 3", "setting": "[1]", "result": 0, "unit": "no."},
      {"measurement": "Retinal detachment, any grade", "setting": "[1]", "result": 2, "unit": "no."},
      {"measurement": "Retinal detachment, grade 1", "setting": "[1]", "result": 1, "unit": "no."},
      {"measurement": "Retinal detachment, grade 2", "setting": "[1]", "result": 1, "unit": "no."},
      {"measurement": "Retinal detachment, grade ≥ 3", "setting": "[1]", "result": 0, "unit": "no."},
      {"measurement": "Stomatitis, any grade", "setting": "[1]", "result": 16, "unit": "no."},
      {"measurement": "Stomatitis, grade 1", "setting": "[1]", "result": 9, "unit": "no."},
      {"measurement": "Stomatitis, grade 2", "setting": "[1]", "result": 6, "unit": "no."},
      {"measurement": "Stomatitis, grade ≥ 3", "setting": "[1]", "result": 1, "unit": "no."},
      {"measurement": "Urinary tract infection, any grade", "setting": "[1]", "result": 4, "unit": "no."},
      {"measurement": "Urinary tract infection, grade 1", "setting": "[1]", "result": 0, "unit": "no."},
      {"measurement": "Urinary tract infection, grade 2", "setting": "[1]", "result": 2, "unit": "no."},
      {"measurement": "Urinary tract infection, grade ≥ 3", "setting": "[1]", "result": 2, "unit": "no."},
      {"measurement": "Vision blurred, any grade", "setting": "[1]", "result": 5, "unit": "no."},
      {"measurement": "Vision blurred, grade 1", "setting": "[1]", "result": 4, "unit": "no."},
      {"measurement": "Vision blurred, grade 2", "setting": "[1]", "result": 1, "unit": "no."},
      {"measurement": "Vision blurred, grade ≥ 3", "setting": "[1]", "result": 0, "unit": "no."},
      {"measurement": "Vomiting, any grade", "setting": "[1]", "result": 9, "unit": "no."},
      {"measurement": "Vomiting, grade 1", "setting": "[1]", "result": 7, "unit": "no."},
      {"measurement": "Vomiting, grade 2", "setting": "[1]", "result": 2, "unit": "no."},
      {"measurement": "Vomiting, grade ≥ 3", "setting": "[1]", "result": 0, "unit": "no."},
      {"measurement": "Weight decreased, any grade", "setting": "[1]", "result": 3, "unit": "no."},
      {"measurement": "Weight decreased, grade 1", "setting": "[1]", "result": 1, "unit": "no."},
      {"measurement": "Weight decreased, grade 2", "setting": "[1]", "result": 2, "unit": "no."},
      {"measurement": "Weight decreased, grade ≥ 3", "setting": "[1]", "result": 0, "unit": "no."},
      {"measurement": "CSR leading to discontinuation", "setting": "in vivo", "result": "three patients"},
      {"measurement": "discontinuation due to grade 1 hyperphosphatemia", "setting": "in vivo", "result": "One patient discontinued treatment"},
      {"measurement": "normalization of phosphate elevation", "setting": "in vivo", "result": "normalized by cycle 5"},
      {"measurement": "retinal vein or artery occlusion", "setting": "in vivo", "result": "no patient had retinal vein or artery occlusion"},
      {"measurement": "time of peak phosphate elevation after erdafitinib initiation", "setting": "in vivo", "result": 6, "unit": "weeks"},
      {"measurement": "death as a result of an adverse event", "setting": "myocardial infarction considered unrelated to treatment", "result": "One patient died as a result of an adverse event"},
      {"measurement": "patients with grade ≥3 treatment-emergent adverse events", "setting": "overall trial population", "result": 66, "unit": "%"},
      {"measurement": "some type of eye disorder, regardless of relation to treatment", "setting": "patients overall", "result": 54, "unit": "%"},
      {"measurement": "Patients with Alopecia, Grade ≥3", "setting": "[2]", "result": 0, "unit": "no."},
      {"measurement": "Patients with Decreased appetite, Grade ≥3", "setting": "[2]", "result": 0, "unit": "no."},
      {"measurement": "Patients with Dry mouth, Grade ≥3", "setting": "[2]", "result": 0, "unit": "no."},
      {"measurement": "Patients with Dry skin, Grade ≥3", "setting": "[2]", "result": 0, "unit": "no."},
      {"measurement": "Patients with Urinary tract infection, Grade 1", "setting": "[2]", "result": 0, "unit": "no."},
      {"measurement": "Patients with Vision blurred, Grade ≥3", "setting": "[2]", "result": 0, "unit": "no."},
      {"measurement": "Patients with Alopecia, Any grade", "setting": "[3]", "result": 8, "unit": "no."},
      {"measurement": "Patients with Alopecia, Grade 2", "setting": "[3]", "result": 0, "unit": "no."},
      {"measurement": "Patients with Alopecia, Grade ≥3", "setting": "[3]", "result": 0, "unit": "no."},
      {"measurement": "Patients with Conjunctivitis, Grade 2", "setting": "[3]", "result": 0, "unit": "no."},
      {"measurement": "Patients with Conjunctivitis, Grade ≥3", "setting": "[3]", "result": 0, "unit": "no."},
      {"measurement": "Patients with Diarrhea, Grade ≥3", "setting": "[3]", "result": 0, "unit": "no."},
      {"measurement": "Patients with Dry skin, Grade ≥3", "setting": "[3]", "result": 0, "unit": "no."},
      {"measurement": "Patients with Dysgeusia, Grade ≥3", "setting": "[3]", "result": 0, "unit": "no."},
      {"measurement": "Patients with Hand-foot syndrome, Grade ≥3", "setting": "[3]", "result": 0, "unit": "no."},
      {"measurement": "Patients with Hyperphosphatemia, Grade ≥3", "setting": "[3]", "result": 0, "unit": "no."},
      {"measurement": "Patients with Lacrimation increased, Grade ≥3", "setting": "[3]", "result": 0, "unit": "no."},
      {"measurement": "Patients with Nausea, Grade ≥3", "setting": "[3]", "result": 0, "unit": "no."},
      {"measurement": "Patients with Onychomadesis, Grade ≥3", "setting": "[3]", "result": 0, "unit": "no."},
      {"measurement": "Patients with Paronychia, Grade ≥3", "setting": "[3]", "result": 0, "unit": "no."},
      {"measurement": "Patients with Retinal detachment, Grade ≥3", "setting": "[3]", "result": 0, "unit": "no."},
      {"measurement": "Patients with Arrhythmia-related events, Any grade", "setting": "[4]", "result": 0, "unit": "no."},
      {"measurement": "Patients with Arrhythmia-related events, Grade ≥3", "setting": "[4]", "result": 0, "unit": "no."},
      {"measurement": "Patients with Alopecia, Grade ≥3", "setting": "[5]", "result": 0, "unit": "no."},
      {"measurement": "Patients with Conjunctivitis, Grade ≥3", "setting": "[5]", "result": 0, "unit": "no."},
      {"measurement": "Patients with Decreased appetite, Grade ≥3", "setting": "[5]", "result": 0, "unit": "no."},
      {"measurement": "Patients with Diarrhea, Grade 2", "setting": "[5]", "result": 5, "unit": "no."},
      {"measurement": "Patients with Dry mouth, Grade ≥3", "setting": "[5]", "result": 0, "unit": "no."},
      {"measurement": "Patients with Dry skin, Grade ≥3", "setting": "[5]", "result": 0, "unit": "no."},
      {"measurement": "Patients with Dysgeusia, Grade ≥3", "setting": "[5]", "result": 0, "unit": "no."},
      {"measurement": "Patients with Fatigue, Grade ≥3", "setting": "[5]", "result": 0, "unit": "no."},
      {"measurement": "Patients with Hand-foot syndrome, Grade 1", "setting": "[5]", "result": 0, "unit": "no."},
      {"measurement": "Patients with Hand-foot syndrome, Grade ≥3", "setting": "[5]", "result": 0, "unit": "no."},
      {"measurement": "Patients with Hyperphosphatemia, Grade ≥3", "setting": "[5]", "result": 0, "unit": "no."},
      {"measurement": "Patients with Lacrimation increased, Grade 2", "setting": "[5]", "result": 0, "unit": "no."},
      {"measurement": "Patients with Lacrimation increased, Grade ≥3", "setting": "[5]", "result": 0, "unit": "no."},
      {"measurement": "Patients with Nausea, Grade ≥3", "setting": "[5]", "result": 0, "unit": "no."},
      {"measurement": "Patients with Onychomadesis, Grade 2", "setting": "[5]", "result": 0, "unit": "no."},
      {"measurement": "Patients with Onychomadesis, Grade ≥3", "setting": "[5]", "result": 0, "unit": "no."},
      {"measurement": "Patients with Paronychia, Grade 1", "setting": "[5]", "result": 0, "unit": "no."},
      {"measurement": "Patients with Paronychia, Grade ≥3", "setting": "[5]", "result": 0, "unit": "no."},
      {"measurement": "Patients with Retinal detachment, Grade ≥3", "setting": "[5]", "result": 0, "unit": "no."},
      {"measurement": "Patients with Vision blurred, Grade ≥3", "setting": "[5]", "result": 0, "unit": "no."}
    ]}
  ]
}
